Laboratory results as given in patent US20210238139A1, “MODULATORS OF TRYPTOPHAN CATABOLISM” (E-Therapeutics PLC, priority 2018, published 2021).
Like-named read-outs stand apart in the source and are kept apart here.

Test system: SK-OV-3 cells
Assay: Effect of compounds on tryptophan catabolism in SK-OV-3 cell line (inhibition of kynurenine production, LC-MS/MS)
Type: cell-based
Conditions: SK-OV-3 cell line, 24 h incubation, kynurenine in supernatant by LC-MS/MS, read-out: IC50 Ranges (ic50 values for inhibition of Kynurenine production)
Protocol: SK-OV-3 cells are seeded in 96-well plates in McCoy's 5A medium supplemented with 10% FBS and incubated overnight at 37° C., 5% CO2, 95% humidity. The […] growth medium is replaced with DMEM F-12 medium supplemented with 6 mg/mL L-tryptophan. Compounds are added to the wells and incubated for 24 h at 37° C., 5% CO2, 95% humidity. Compounds are tested at 8 consecutive 3-fold dilutions starting from 30 μM in duplicate. At the end of incubation, concentration of kynurenine in cell supernatants is […] determined by LC-MS/MS. In parallel, cell viability is assessed by measurement of ATP using CellTiter Glo assay (Promega), according to manufacturer's protocol. Inhibition of Kyn production is calculated using the following formula: […] IC50 ranges for compounds of the invention are presented in Table 2, whereby the IC50 ranges are as follows: • A: […]

IC50 (Homo sapiens, SK-OV-3, 24 h) | IC50 | Structure (SMILES)
> 5 µM | – | O=C(NCc1ccc(F)cc1)N(Cc1cccs1)C1CCCC1 [Compound 8, 1-cyclopentyl-3-[(4-fluorophenyl)methyl]-1-(2-thienylmethyl)urea]
1 to 5 µM | – | O=C(Nc1ccc2c(c1)CCC2)N(Cc1cccs1)C1CCCC1 [Compound 9, 1-cyclopentyl-3-indan-5-yl-1-(2-thienylmethyl)urea]
1 to 5 µM | – | O=C(Nc1cc(Cl)nc(Cl)c1)N(Cc1cccs1)C1CCCC1 [Compound 10, 1-cyclopentyl-3-(2,6-dichloro-4-pyridyl)-1-(2-thienylmethyl)urea]
1 to 5 µM | – | O=C(Nc1ccncc1)N(Cc1cccs1)C1CCCC1 [Compound 11, 1-cyclopentyl-3-(4-pyridyl)-1-(2-thienylmethyl)urea]
1 to 5 µM | – | O=C(NC1CCCCC1)N(Cc1cccs1)C1CCCC1 [Compound 12, 3-cyclohexyl-1-cyclopentyl-1-(2-thienylmethyl) urea]
1 to 5 µM | – | O=C(Nc1ccc(C(F)(F)F)cc1)N(Cc1cccs1)C1CCCC1 [Compound 13, 1-cyclopentyl-1-(2-thienylmethyl)-3-[4-(trifluoromethyl)phenyl]urea]
> 5 µM | – | COc1ccc(NC(=O)N(Cc2cccs2)C2CCCC2)cc1 [Compound 14, 1-cyclopentyl-3-(4-methoxyphenyl)-1-(2-thienylmethyl)urea]
1 to 5 µM | – | C=CCNC(=O)N(Cc1cccs1)C1CCCC1 [Compound 15, 3-allyl-1-cyclopentyl-1-(2-thienylmethyl)urea]
0.1 to 0.5 µM | – | C#Cc1ccc(NC(=O)N(Cc2ccc(C)o2)C2CCCC2)nc1 [Compound 16, 1-cyclopentyl-3-(5-ethynyl-2-pyridyl)-1-[(5-methyl-2-furyl)methyl]urea]
0.1 to 0.5 µM | – | C#Cc1cnc(NC(=O)N(Cc2ccc(C)o2)C2CCCC2)nc1 [Compound 17, 1-cyclopentyl-3-(5-ethynylpyrimidin-2-yl)-1-[(5-methyl-2-furyl)methyl]urea]
1 to 5 µM | – | COc1ccc(NC(=O)N(Cc2cccs2)C2CCCC2)c(OC)c1 [Compound 18, 1-cyclopentyl-3-(2,4-dimethoxyphenyl)-1-(2-thienylmethyl)urea]
– | 0.5 to 1 µM | O=C(Nc1ccccc1)N(Cc1cccs1)C1CCCC1 [Compound 19, 1-cyclopentyl-3-phenyl-1-(2-thienylmethyl)urea]
> 5 µM | – | O=C(NCCc1ccccc1)N(Cc1ccccn1)C1CCCCC1 [Compound 20, 1-cyclohexyl-3-(2-phenylethyl)-1-(2-pyridylmethyl)urea]
> 5 µM | – | CC(=O)c1ccc(NC(=O)N(Cc2cccs2)C2CCCC2)cc1 [Compound 22, 3-(4-acetylphenyl)-1-cyclopentyl-1-(2-thienylmethyl)urea]
> 5 µM | – | CN(C(=O)N(Cc1cccs1)C1CCCC1)c1ccccc1 [Compound 23, 1-cyclopentyl-3-methyl-3-phenyl-1-(2-thienylmethyl)urea]
> 5 µM | – | Cc1ccc(CN(C(=O)Nc2ccccc2)C2CCCC2)s1 [Compound 24, 1-cyclopentyl-1-[(5-methyl-2-thienyl)methyl]-3-phenyl-urea]
0.1 to 0.5 µM | – | CCc1ccc(NC(=O)N(Cc2ccc(C)s2)C2CCCC2)cc1 [Compound 25, 1-cyclopentyl-3-(4-ethylphenyl)-1-[(5-methyl-2-thienyl)methyl]urea]
0.1 to 0.5 µM | – | Cc1ccc(CN(C(=O)Nc2ccc(F)c(F)c2)C2CCCC2)s1 [Compound 27, 1-cyclopentyl-3-(3,4-difluorophenyl)-1-[(5-methyl-2-thienyl)methyl]urea]
0.5 to 1 µM | – | O=C(Nc1ccccc1)N(Cc1ccco1)C1CCCC1 [Compound 28, 1-cyclopentyl-1-(2-furylmethyl)-3-phenyl-urea]

IC50 (Homo sapiens, SK-OV-3, 24 h) | IC50 | Structure (SMILES)
> 5 µM | – | O=C(NCCc1ccccc1)N(Cc1ccco1)C1CCCC1 [Compound 29, 1-cyclopentyl-1-(2-furylmethyl)-3-(2-phenylethyl)urea]
0.1 to 0.5 µM | – | O=C(Nc1ccc(F)c(F)c1)N(Cc1ccco1)C1CCCC1 [Compound 30, 1-cyclopentyl-3-(3,4-difluorophenyl)-1-(2-furylmethyl)urea]
0.1 to 0.5 µM | – | Cc1ccc(CN(C(=O)Nc2ccc(F)c(F)c2)C2CCCC2)o1 [Compound 31, 1-cyclopentyl-3-(3,4-difluorophenyl)-1-[(5-methyl-2-furyl)methyl]urea]
> 5 µM | – | O=C(Nc1ccccc1)N(Cc1ccccn1)C1CCCCC1 [Compound 32, 1-cyclohexyl-3-phenyl-1-(2-pyridylmethyl)urea]
> 5 µM | – | O=C(Nc1ccc(F)c(F)c1)N(Cc1ccccn1)C1CCCCC1 [Compound 33, 1-cyclohexyl-3-(3,4-difluorophenyl)-1-(2-pyridylmethyl)urea]
0.1 to 0.5 µM | – | O=C(Nc1ccc(F)cc1)N(Cc1cccs1)C1CCCC1 [Compound 34, 1-cyclopentyl-3-(4-fluorophenyl)-1-(2-thienylmethyl)urea]
1 to 5 µM | – | O=C(Nc1ccccc1)N(Cc1nccs1)C1CCCC1 [Compound 35, 1-cyclopentyl-3-phenyl-1-(thiazol-2-ylmethyl)urea]
1 to 5 µM | – | CCc1ccc(NC(=O)N(Cc2nccs2)C2CCCC2)cc1 [Compound 36, 1-cyclopentyl-3-(4-ethylphenyl)-1-(thiazol-2-ylmethyl)urea]
1 to 5 µM | – | O=C(Nc1ccc(F)c(F)c1)N(Cc1nccs1)C1CCCC1 [Compound 37, 1-cyclopentyl-3-(3,4-difluorophenyl)-1-(thiazol-2-ylmethyl)urea]
0.5 to 1 µM | – | O=C(Nc1ccccc1)N(Cc1ccccc1Cl)C1CCCC1 [Compound 38, 1-[(2-chlorophenyl)methyl]-1-cyclopentyl-3-phenyl-urea]
> 5 µM | – | CCc1ccc(NC(=O)N(Cc2ccccc2Cl)C2CCCC2)cc1 [Compound 39, 1-[(2-chlorophenyl)methyl]-1-cyclopentyl-3-(4-ethylphenyl)urea]
0.1 to 0.5 µM | – | O=C(Nc1ccc(F)c(F)c1)N(Cc1ccccc1Cl)C1CCCC1 [Compound 40, 1-[(2-chlorophenyl)methyl]-1-cyclopentyl-3-(3,4-difluorophenyl)urea]
1 to 5 µM | – | Cn1ncc(CN(C(=O)Nc2ccccc2)C2CCCC2)c1Cl [Compound 41, 1-[(5-chloro-1-methyl-pyrazol-4-yl)methyl]-1-cyclopentyl-3-phenyl-urea]
0.1 to 0.5 µM | – | CCc1ccc(NC(=O)N(Cc2cnn(C)c2Cl)C2CCCC2)cc1 [Compound 42, 1-[(5-chloro-1-methyl-pyrazol-4-yl)methyl]-1-cyclopentyl-3-(4-ethylphenyl)urea]
1 to 5 µM | – | Cn1ncc(CN(C(=O)Nc2ccc(F)c(F)c2)C2CCCC2)c1Cl [Compound 43, 1-[(5-chloro-1-methyl-pyrazol-4-yl)methyl]-1-cyclopentyl-3-(3,4-difluorophenyl) urea]
0.5 to 1 µM | – | Cn1ncc(CN(C(=O)Nc2ccc(F)cc2)C2CCCC2)c1Cl [Compound 44, 1-[(5-chloro-1-methyl-pyrazol-4-yl)methyl]-1-cyclopentyl-3-(4-fluorophenyl) urea]
0.1 to 0.5 µM | – | COc1ccc(CN(C(=O)Nc2ccccc2)C2CCCC2)cc1C [Compound 45, 1-cyclopentyl-1-[(4-methoxy-3-methyl-phenyl)methyl]-3-phenyl-urea]
1 to 5 µM | – | COc1ccc(CN(C(=O)NCCc2ccccc2)C2CCCC2)cc1C [Compound 46, 1-cyclopentyl-1-[(4-methoxy-3-methyl-phenyl)methyl]-3-(2-phenylethyl)urea]
